Source: ChEMBL document CHEMBL4396870, “Pharmacological Chaperones for the Treatment of α-Mannosidosis” (J Med Chem, 2019)
pKi: −log10 of the molar value. Activity calls are given as the source filed them. No cut-off for these calls is given here.

Key:
[1] = system: Saccharomyces cerevisiae; assay: Inhibition of yeast alpha-glucosidase assessed as residual hydrolytic activity up to 2 mM after 10 to 30 mins by spectrophotometric analysis
[2] = system: Saccharomyces cerevisiae; assay: Inhibition of yeast isomaltase assessed as residual hydrolytic activity up to 2 mM after 10 to 30 mins by spectrophotometric analysis
[3] = system: Aspergillus niger; assay: Inhibition of Aspergillus niger amyloglucosidase assessed as residual hydrolytic activity up to 2 mM after 10 to 30 mins by spectrophotometric analysis
[4] = biological target: Alpha-galactosidase (Coffea arabica) (UniProt Q42656); assay: Inhibition of green coffee alpha-galactosidase assessed as residual hydrolytic activity up to 2 mM after 10 to 30 mins by spectrophotometric analysis
Chain of Alpha-galactosidase (Coffea arabica) (Q42656 16-378 limits assumed): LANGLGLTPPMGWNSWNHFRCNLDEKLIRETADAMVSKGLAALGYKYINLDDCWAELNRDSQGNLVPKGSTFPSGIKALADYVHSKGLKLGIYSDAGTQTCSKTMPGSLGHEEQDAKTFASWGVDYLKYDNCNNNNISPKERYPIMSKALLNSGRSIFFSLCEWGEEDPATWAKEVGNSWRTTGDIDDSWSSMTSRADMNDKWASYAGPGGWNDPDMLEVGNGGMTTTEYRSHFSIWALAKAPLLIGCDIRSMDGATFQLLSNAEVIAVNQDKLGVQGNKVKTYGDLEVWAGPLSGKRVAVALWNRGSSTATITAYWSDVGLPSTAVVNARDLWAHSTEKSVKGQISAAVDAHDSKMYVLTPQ

[5] = biological target: Beta-galactosidase (Escherichia coli) (UniProt Q8VNN2); assay: Inhibition of Escherichia coli beta-galactosidase assessed as residual hydrolytic activity up to 2 mM after 10 to 30 mins by spectrophotometric analysis
Chain of Beta-galactosidase (Escherichia coli) (Q8VNN2 whole entry, looked up): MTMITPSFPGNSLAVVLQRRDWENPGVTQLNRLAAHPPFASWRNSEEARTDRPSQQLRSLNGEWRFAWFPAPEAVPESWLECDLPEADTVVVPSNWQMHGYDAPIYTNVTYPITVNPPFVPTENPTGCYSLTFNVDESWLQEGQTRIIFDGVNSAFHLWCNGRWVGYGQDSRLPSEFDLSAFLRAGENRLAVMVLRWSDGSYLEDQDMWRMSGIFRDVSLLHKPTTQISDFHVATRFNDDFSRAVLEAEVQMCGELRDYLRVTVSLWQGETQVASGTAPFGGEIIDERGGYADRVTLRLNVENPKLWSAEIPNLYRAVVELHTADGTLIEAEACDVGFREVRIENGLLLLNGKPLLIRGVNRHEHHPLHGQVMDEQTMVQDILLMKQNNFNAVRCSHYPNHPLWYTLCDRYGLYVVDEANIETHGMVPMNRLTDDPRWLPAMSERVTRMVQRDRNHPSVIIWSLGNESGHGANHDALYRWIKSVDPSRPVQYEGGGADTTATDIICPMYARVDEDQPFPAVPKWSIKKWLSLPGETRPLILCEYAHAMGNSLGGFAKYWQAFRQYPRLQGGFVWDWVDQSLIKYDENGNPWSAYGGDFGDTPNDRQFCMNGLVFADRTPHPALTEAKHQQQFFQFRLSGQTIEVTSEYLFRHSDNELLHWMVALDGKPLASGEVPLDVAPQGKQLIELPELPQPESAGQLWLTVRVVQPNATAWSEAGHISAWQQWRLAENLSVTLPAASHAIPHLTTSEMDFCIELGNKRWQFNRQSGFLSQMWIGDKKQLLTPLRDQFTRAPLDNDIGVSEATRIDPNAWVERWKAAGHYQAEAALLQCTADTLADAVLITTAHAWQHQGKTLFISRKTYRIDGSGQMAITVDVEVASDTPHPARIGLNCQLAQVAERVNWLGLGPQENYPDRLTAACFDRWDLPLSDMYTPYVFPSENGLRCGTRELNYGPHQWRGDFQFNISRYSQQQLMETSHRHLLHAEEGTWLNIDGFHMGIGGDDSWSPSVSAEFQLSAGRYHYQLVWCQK

[6] = system: Helix pomatia; assay: Inhibition of Helix pomatia beta-mannosidase assessed as residual hydrolytic activity up to 2 mM after 10 to 30 mins by spectrophotometric analysis
[7] = Inhibition of Helix pomatia beta-mannosidase assessed as residual hydrolytic activity after 10 to 30 mins by spectrophotometric analysis; settings: read-out: Ki
[8] = Inhibition of bovine liver beta-glucosidase assessed as residual hydrolytic activity after 10 to 30 mins by spectrophotometric analysis; parameters: species or system Bos taurus
[9] = Inhibition of almond beta-glucosidase assessed as residual hydrolytic activity after 10 to 30 mins by spectrophotometric analysis; parameters: species or system Prunus dulcis
[10] = biological target: T1, Alpha-mannosidase (Canavalia ensiformis, UniProt C0HJB3); assay: Inhibition of jack bean Lysosomal alpha-mannosidase assessed as residual hydrolytic activity after 10 to 30 mins by spectrophotometric analysis
T1 sequence (C0HJB3 whole entry): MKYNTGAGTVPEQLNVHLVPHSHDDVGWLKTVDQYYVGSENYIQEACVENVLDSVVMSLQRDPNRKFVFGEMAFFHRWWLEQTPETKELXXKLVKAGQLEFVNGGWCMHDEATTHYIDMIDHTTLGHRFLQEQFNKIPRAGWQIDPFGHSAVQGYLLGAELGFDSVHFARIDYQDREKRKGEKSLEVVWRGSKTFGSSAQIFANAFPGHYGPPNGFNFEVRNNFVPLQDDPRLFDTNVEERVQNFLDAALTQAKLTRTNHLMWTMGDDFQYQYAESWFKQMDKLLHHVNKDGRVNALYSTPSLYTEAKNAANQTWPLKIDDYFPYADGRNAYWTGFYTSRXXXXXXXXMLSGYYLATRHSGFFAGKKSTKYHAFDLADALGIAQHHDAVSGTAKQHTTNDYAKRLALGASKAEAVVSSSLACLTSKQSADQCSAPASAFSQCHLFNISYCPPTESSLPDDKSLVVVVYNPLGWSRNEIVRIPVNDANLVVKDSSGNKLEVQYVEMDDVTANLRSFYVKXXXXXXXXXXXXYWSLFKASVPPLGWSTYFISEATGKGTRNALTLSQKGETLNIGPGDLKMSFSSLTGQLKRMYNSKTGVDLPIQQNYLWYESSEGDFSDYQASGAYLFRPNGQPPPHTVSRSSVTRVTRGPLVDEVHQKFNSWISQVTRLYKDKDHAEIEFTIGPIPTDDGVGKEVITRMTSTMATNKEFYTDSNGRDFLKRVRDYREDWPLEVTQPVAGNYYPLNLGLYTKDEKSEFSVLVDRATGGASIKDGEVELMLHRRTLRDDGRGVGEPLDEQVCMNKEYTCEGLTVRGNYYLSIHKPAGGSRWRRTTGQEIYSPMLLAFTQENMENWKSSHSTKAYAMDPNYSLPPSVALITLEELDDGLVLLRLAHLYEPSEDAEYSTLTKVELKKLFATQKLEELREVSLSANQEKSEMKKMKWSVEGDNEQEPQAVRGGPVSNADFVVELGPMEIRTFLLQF

inhibition [1] | inhibition [2] | inhibition [3] | inhibition [4] | inhibition [5] | Activity [6] | Structure (SMILES) | pKi [7] | pKi [8] | pKi [9] | pKi [10]
Active | Active | Active | Active | Active | Active | O=C1OC[C@@H]2[C@@H](O)[C@H](O)[C@H](O)[C@@H](NCCCCCCn3cc(COC[C@H]4O[C@@H]5O[C@H]6[C@H](O)[C@@H](OCc7cn(CCCCCCN[C@@H]8[C@@H](O)[C@@H](O)[C@H](O)[C@H]9COC(=O)N98)nn7)[C@@H](O[C@H]7[C@H](O)[C@@H](OCc8cn(CCCCCCN[C@@H]9[C@@H](O)[C@@H](O)[C@H](O)[C@H]%10COC(=O)N%109)nn8)[C@@H](O[C@H]8[C@H](O)[C@@H](OCc9cn(CCCCCCN[C@@H]%10[C@@H](O)[C@@H](O)[C@H](O)[C@H]%11COC(=O)N%11%10)nn9)[C@@H](O[C@H]9[C@H](O)[C@@H](OCc%10cn(CCCCCCN[C@@H]%11[C@@H](O)[C@@H](O)[C@H](O)[C@H]%12COC(=O)N%12%11)nn%10)[C@@H](O[C@H]%10[C@H](O)[C@@H](OCc%11cn(CCCCCCN[C@@H]%12[C@@H](O)[C@@H](O)[C@H](O)[C@H]%13COC(=O)N%13%12)nn%11)[C@@H](O[C@H]%11[C@H](O)[C@@H](OCc%12cn(CCCCCCN[C@@H]%13[C@@H](O)[C@@H](O)[C@H](O)[C@H]%14COC(=O)N%14%13)nn%12)[C@@H](O[C@H]4[C@H](O)[C@H]5OCc4cn(CCCCCCN[C@@H]5[C@@H](O)[C@@H](O)[C@H](O)[C@H]%12COC(=O)N%125)nn4)O[C@@H]%11COCc4cn(CCCCCCN[C@@H]5[C@@H](O)[C@@H](O)[C@H](O)[C@H]%11COC(=O)N%115)nn4)O[C@@H]%10COCc4cn(CCCCCCN[C@@H]5[C@@H](O)[C@@H](O)[C@H](O)[C@H]%10COC(=O)N%105)nn4)O[C@@H]9COCc4cn(CCCCCCN[C@@H]5[C@@H](O)[C@@H](O)[C@H](O)[C@H]9COC(=O)N95)nn4)O[C@@H]8COCc4cn(CCCCCCN[C@@H]5[C@@H](O)[C@@H](O)[C@H](O)[C@H]8COC(=O)N85)nn4)O[C@@H]7COCc4cn(CCCCCCN[C@@H]5[C@@H](O)[C@@H](O)[C@H](O)[C@H]7COC(=O)N75)nn4)O[C@@H]6COCc4cn(CCCCCCN[C@@H]5[C@@H](O)[C@@H](O)[C@H](O)[C@H]6COC(=O)N65)nn4)nn3)N12 |  |  |  | 
 |  |  |  |  |  | N[C@@H]1[C@@H](O)[C@@H](O)[C@H](O)[C@H]2COC(=O)N12 | 3.70 to 4.70 | 3.70 to 4.70 | 3.70 to 4.70 | 5.15
